Results from patent US9708377B2, “Scorpion toxin analogue and method for treating autoimmune diseases” (MONASH UNIVERSITY, priority 2013, dated 2017).

Key:
mKv1.1 channels = target: T1, mKv1.1 channels (Mus musculus, UniProt P16388); assay: Whole-cell patch-clamp block of Kv1.1 channels in L929 cells; assay type: cell-based; conditions: for current block on Kv1.1 channels: 100 nM, n=3, preliminary
T1 construct: expressed in transfected cells
Protocol: Cells and Cell Lines—L929 mouse fibroblast cells stably expressing mKv1.1 and mKv1.3 channels (Grissmer S et al., 1994) were maintained in DMEM medium (Invitrogen Corporation, Carlsbad, Calif., United States of America) supplemented with 100 IU/mL penicillin, 0.1 μg/mL streptomycin, 2 mM L-glutamine, 10% heat-inactivated foetal bovine serum, and 0.5 mg/mL G418 (EMD Chemicals, Gibbstown, N.J., United States of America).
Electrophysiological Analysis—Experiments were conducted at room temperature in the whole-cell configuration of the patch-clamp technique. A manual setup and an automated Port-a-patch setup (Nanion, North Brunswick, N.J., United States of America) were used in parallel, both linked to a HEKA EPC10USB amplifier. […] The bath solution contained (in mM): 160 NaCl, 4.5 KCl, 2 CaCl2, 1 MgCl2, 10 HEPES, pH 7.2, 300 mOsm. Kv currents were elicited every 30 s by 200-ms depolarising pulses from a holding potential of −80 mV to 40 mV. Kd values and Hill coefficients were determined by fitting the Hill equation to the reduction of peak current measured at 40 mV.

Kv1.3 [1] = target: T2, Kv1.3 (Rattus norvegicus, UniProt P15384); conditions: Kv1.3 complex; cited from earlier work
T2 sequence (P15384 whole entry): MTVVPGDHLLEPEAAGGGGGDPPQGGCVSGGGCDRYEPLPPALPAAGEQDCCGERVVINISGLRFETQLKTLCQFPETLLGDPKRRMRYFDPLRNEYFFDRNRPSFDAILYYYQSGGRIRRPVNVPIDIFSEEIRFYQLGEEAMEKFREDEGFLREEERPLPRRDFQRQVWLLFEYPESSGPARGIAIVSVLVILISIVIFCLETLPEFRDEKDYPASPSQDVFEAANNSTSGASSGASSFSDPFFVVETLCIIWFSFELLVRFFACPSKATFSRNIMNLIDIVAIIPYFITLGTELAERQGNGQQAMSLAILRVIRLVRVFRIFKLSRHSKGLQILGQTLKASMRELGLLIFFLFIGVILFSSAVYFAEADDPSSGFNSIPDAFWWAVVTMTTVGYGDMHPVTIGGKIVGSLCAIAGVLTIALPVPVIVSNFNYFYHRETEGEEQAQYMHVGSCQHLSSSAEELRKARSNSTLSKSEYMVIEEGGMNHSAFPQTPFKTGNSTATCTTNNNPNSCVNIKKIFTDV

rat Kv1.3 channels = rat Kv1.3 channels (Rattus norvegicus, UniProt P15384); conditions: Lebrun B et al., 1997; read-out: IC50 inhibition of rat Kv1.3 channels; cited from earlier work
Sequence of rat Kv1.3 channels (P15384 whole entry): as above

Kv1.3 [2] = target: T2, Kv1.3; conditions: C-terminal amidation; cited from earlier work
Kv1.1 = Kv1.1 (Homo sapiens, UniProt Q09470); conditions: Kv1.1 complex; cited from earlier work
Sequence of Kv1.1 (Q09470 whole entry): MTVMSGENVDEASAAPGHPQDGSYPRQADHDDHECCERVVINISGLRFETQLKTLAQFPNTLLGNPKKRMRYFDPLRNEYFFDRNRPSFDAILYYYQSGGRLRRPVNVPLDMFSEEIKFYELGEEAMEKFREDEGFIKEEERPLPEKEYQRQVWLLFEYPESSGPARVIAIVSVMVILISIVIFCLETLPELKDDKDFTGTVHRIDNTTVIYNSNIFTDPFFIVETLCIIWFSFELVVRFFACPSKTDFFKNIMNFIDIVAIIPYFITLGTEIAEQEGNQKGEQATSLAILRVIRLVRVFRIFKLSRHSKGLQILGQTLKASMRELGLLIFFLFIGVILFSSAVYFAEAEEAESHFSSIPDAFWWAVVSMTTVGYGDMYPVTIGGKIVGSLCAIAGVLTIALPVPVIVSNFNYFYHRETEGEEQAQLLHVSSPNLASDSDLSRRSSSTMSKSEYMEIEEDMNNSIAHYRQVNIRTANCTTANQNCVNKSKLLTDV

[3] = tested on: voltage-gated K+ channels; conditions: rat brain synaptosomal membranes; read-out: IC50 competition with 125I-kaliotoxin binding; cited from earlier work
[4] = tested on: rat brain synaptosomal membranes; conditions: cited from earlier work

T1 sequence (P16388 whole entry): as the sequence (Q09470 whole entry) above, with V9A, A14T, V202I, N213T, M449I, V471A, A476G, N482D counted along it

| Compound | IC50 (mKv1.1 channels) [pM] | current block on Kv1.1 channels (mKv1.1 channels) | Gb (exp) experimental binding free energy (Kv1.3 [1]) [kcal/mol] | IC50 (rat Kv1.3 channels) [pM] | affinity for Kv1.3 of amidated form compared to synthetic carboxylated form (Kv1.3 [2]) | Gb (exp) experimental binding free energy (Kv1.1) [kcal/mol] | IC50 [3] [pM] | competition with 125I-apamin binding [4] |
| --- | --- | --- | --- | --- | --- | --- | --- | --- |
| CC[C@@H]1NC(=O)[C@@H]2CSSC[C@@H]3NC(=O)[C@H](CCCCN)NC(=O)[C@@H]4CSSC[C@H](NC(=O)[C@H](CC(=O)O)NC(=O)[C@H](CCCCN)NC(=O)[C@@H]5CCCN5C(=O)[C@H]([C@@H](C)O)NC(=O)[C@H](CCCNC(=N)N)NC(=O)[C@@H](NC(=O)[C@H](CO)NC(=O)[C@H](C)N)CSSC[C@H](NC(=O)[C@H](CCCCN)NC(=O)CNC(=O)[C@H](Cc5ccc(O)cc5)NC(=O)[C@@H]5CCCN5C(=O)[C@H](CSSC[C@@H](C(N)=O)NC(=O)[C@H](CCCNC(=N)N)NC(=O)[C@H](CC(N)=O)NC3=O)NC(=O)CNC(=O)[C@H]([C@@H](C)O)NC(=O)[C@H](CCC(=O)O)NC(=O)[C@H](CCCCN)NC1=O)C(=O)N[C@@H](CCSC)C(=O)N[C@@H](CC(N)=O)C(=O)N[C@@H](CCCNC(=N)N)C(=O)N[C@@H](CCCCN)C(=O)N4)C(=O)N[C@@H](C)C(=O)N[C@@H](CC(=O)O)C(=O)N1CCC[C@H]1C(=O)N2 [HsTX1[R14Abu], ASCRTPKDCADPCXKETGCPYGKCMNRKCKCNRC] | > 100000 | 15-20% |  |  |  |  |  |  |
| CSCC[C@@H]1NC(=O)[C@@H]2CSSC[C@H](NC(=O)[C@H](CO)NC(=O)[C@H](C)N)C(=O)N[C@@H](CCCNC(=N)N)C(=O)N[C@@H]([C@@H](C)O)C(=O)N3CCC[C@H]3C(=O)N[C@@H](CCCCN)C(=O)N[C@@H](CC(=O)O)C(=O)N[C@H]3CSSC[C@H](NC(=O)[C@H](CCCCN)NC(=O)[C@H](CCCNC(=N)N)NC(=O)[C@H](CC(N)=O)NC1=O)C(=O)N[C@@H](CCCCN)C(=O)N[C@H]1CSSC[C@H](NC(=O)[C@@H]4CCCN4C(=O)[C@H](CC(=O)O)NC(=O)[C@H](C)NC3=O)C(=O)N[C@@H](C)C(=O)N[C@@H](CCCCN)C(=O)N[C@@H](CCC(=O)O)C(=O)N[C@@H]([C@@H](C)O)C(=O)NCC(=O)N[C@@H](CSSC[C@@H](C(N)=O)NC(=O)[C@H](CCCNC(=N)N)NC(=O)[C@H](CC(N)=O)NC1=O)C(=O)N1CCC[C@H]1C(=O)N[C@@H](Cc1ccc(O)cc1)C(=O)NCC(=O)N[C@@H](CCCCN)C(=O)N2 [HsTX1[R14A]] | > 100000 | 10-16% |  |  |  |  |  |  |
| ASCRTPKDCADPCRKETGCPYGKCMNRKCKCNRC [HsTX1] |  |  | -14.9 ± 0.2 | ~12 | five-fold greater affinity for Kv1.3 | -11.1 ± 0.1 | ~1 | did not compete |
